According to patent US6723716B1, “7-acylamino-3-heteroarylthio-3-cephem carboxylic acid antibiotics and prodrugs thereof” (Essential Therapeutics, Inc., priority 1999, dated 2004):
Converted amounts (≈) assume the structure as drawn.

Columns and labels:
[1] = test system: S. aureus ATCC29213; experiment: Human serum binding effect: MIC with and without human serum; format: cell-based, Staphylococcus aureus; details: 1:1 human serum:MHB
Procedure: The approximate measurement of the degree of binding of the compound to human serum proteins can be achieved by determination of the effect of the addition of human serum to the medium in which the MIC values against a selected bacterial strain is determined. The ratio of the MIC value obtained in presence of added human serum to the MIC value determined without serum addition was used as a measure of serum binding and the results of such determination are presented below in Table 2.
In addition to the standard MIC determination described above, the staphylococcal strain ATCC29213 is also tested in a ratio 1:1, human serum:MHB to obtain a preliminary estimate of the bioactivity of test compounds in serum: The assay was performed in Human Serum and Mueller-Hinton Broth (HSMHB) with a final bacterial inoculum of 1×10^6 CFU/mL (from an early-log phase culture) and a final volume of 100 μL. Control drugs, including imipenem, vancomycin, dicloxacillin, and new compounds were prepared in double-concentrated Mueller-Hinton broth at a concentration equivalent to 4-fold the desired final concentration. Dilution of compounds were prepared directly in the plates by serial 2-fold dilution in double-concentrated Mueller-Hinton using a multichannel pipette. Positive and negative growth controls were included in each plate. […] The inoculum was prepared by diluting the early log-phase (1 h) culture 1:100 with fresh double-concentrated Mueller-Hinton broth. A volume of 25 μL of the inoculum was added to each well. […] The exact inoculum was determined by applying 10 μl of 10-fold serial dilution of the bacterial suspension on TSA. After overnight incubation at 35° C., colony forming units were manually counted.

[2] = test system: S. aureus ATCC 13709 (Meth^S); experiment: Broth microdilution MIC (NCCLS); format: cell-based; details: Staphylococcus aureus, ATCC13709, S. aureus ATCC 13709 (Meth^S); read-out: MIC
Procedure: (§1) Compounds were evaluated for antimicrobial activity against a panel of bacterial strains using a broth microdilution assay performed as recommended by the NCCLS (1). The minimum inhibitory concentration (MIC) was defined as the lowest concentration of drug which prevented the growth of the bacteria.
(§2) For this primary panel, the assay was performed in Mueller-Hinton Broth (MHB) with a final bacterial inoculum of 5×10^5 CFU/mL (from an early-log phase culture) and a final volume of 100 μL. Control drugs, including imipenem, vancomycin, Penicillin G, dicloxacillin (vs. MSSA ATCC29213 only), and new compounds were prepared at a concentration equivalent to 2-fold the desired final concentration. Dilution of compounds were prepared directly in the plates by serial 2-fold dilution using a multichannel pipette. Positive and negative growth control were included in each plate.
(§3) The bacterial inocula were prepared as follows. For each strain one isolated colony was used to inoculate a volume of 8 mL of Mueller-Hinton broth and these cultures were incubated overnight (20 h) at 35° C. in a shaking incubator. At the exception of Enterococcus strains, culture were then diluted 1:10 and allowed to grow for an additional one hour at 35° C. in a shaking incubator. The inocula were prepared by diluting the early log-phase (1 h) cultures 1:1000 with fresh Mueller-Hinton broth. E. faecium and E. faecalis were prepared by diluting overnight cultures 1:333 and 1:666, respectively, with fresh Mueller-Hinton broth. A volume of 50 μL of the inocula was added to each well. […] The exact inocula were determined by applying 10 μL of 10-fold serial dilution of the bacterial suspensions on TSA. After overnight incubation at 35° C., colony forming units were manually counted.
(§4) Microtiter plates were incubated during 24 h at 35° C. and were read using a microtiterplate reader (Molecular Devices) at 650 nm as well as by visual observation using a microtiterplate reading mirror.

[3] = In vitro stability of compounds in rat serum; format: in vitro ADME; details: Table 2 data
Procedure: In general, compounds from the class of 7-acylamino-3-heteroarylthio-3-cephem carboxylic acids have higher chemical reactivity and lower stability towards chemical or enzymatic decomposition than most typical cephalosporins. […] Results shown in Table 2 represent percentage loss of the initial amount of cephalosporin compound upon 60 min incubation in rat serum.
Procedure for measuring degree of degradation of cephalosporin compounds in rat serum was as follows:
Fresh control rat serum (heparinized and stored frozen) is preincubated at 37° C. for 15 min in a shaking water bath. pH is measured using test strips. 25 μL of a 2 mg/mL solution cephalosporin compound (in water) of is then added to each matrix to make 1000 μL. Solutions were incubated at 37° C. 100 ul of solution was taken out at time=0, 15, 30, and 60 min post dose and added 200 μL 4% trichloroacetic acid, vortexed, and centrifuged for 10 min at 14,000 rpm in an Eppendorf microcentrifuge. 25 μL of each supernatant was injected onto HPLC. Experiment was repeated using 25 μL of a 0.2 mg/mL cephalosporin compound. Degradation is measured as the percentage of HPLC peak area at time t relative to peak area at time 0.
HPLC conditions: Beckman Ultrasphere C18 column. 5 u. 4.6 mm×25 cm. 1 mL/min of 95% 0.1 M ammonium acetate, pH 6, 5% ACN going to 75% buffer/organic over 20 min. UV monitored at 254 and 280 nm.

[4] = test system: S. aureus 76 (Meth^R)(lac^+); experiment: Broth microdilution MIC (NCCLS); format: cell-based; details: Staphylococcus aureus
Procedure: as §1, §2, §3, §4

[5] = test system: E. faecium ATCC 35667; experiment: Broth microdilution MIC (NCCLS); format: cell-based; details: Enterococcus faecium, ATCC35667
Procedure: as §1, §2, §3, §4

[6] = test system: E. faecalis VanB (Van^R); experiment: Broth microdilution MIC (NCCLS); format: cell-based; details: Enterococcus faecalis
Procedure: as §1, §2, §3, §4

[7] = test system: S. aureus Spain #356 (Meth^R); experiment: Broth microdilution MIC (NCCLS); format: cell-based; details: Staphylococcus aureus, 24 h
Procedure: as §1, §2, §3, §4

[8] = test system: S. aureus ATCC 33593 (Meth^R); experiment: Broth microdilution MIC (NCCLS); format: cell-based; details: Staphylococcus aureus, ATCC33593
Procedure: as §1, §2, §3, §4

[9] = test system: S. aureus PC1 (Meth^S)(lac^+); experiment: Broth microdilution MIC (NCCLS); format: cell-based; details: Staphylococcus aureus
Procedure: as §1, §2, §3, §4

[10] = test system: E. faecalis ATCC 29212; experiment: Broth microdilution MIC (NCCLS); format: cell-based; details: Enterococcus faecalis, ATCC29212
Procedure: as §1, §2, §3, §4

[11] = test system: S. aureus ATCC 29213; experiment: Broth microdilution MIC (NCCLS); format: cell-based; details: Staphylococcus aureus, ATCC29213; S. aureus ATCC 29213; Mueller-Hinton broth, 24 h at 35° C.; read-out: MIC
Procedure: as §1, §2, §3, §4

[12] = test system: E. coli ATCC25992; experiment: Broth microdilution MIC (NCCLS); format: cell-based; details: Escherichia coli
Procedure: as §1, §2, §3, §4

[13] = test system: S. haemolyticus 05 (Meth^R); experiment: Broth microdilution MIC (NCCLS); format: cell-based; details: Staphylococcus haemolyticus
Procedure: as §1, §2, §3, §4

[14] = test system: E. faecium VanA (Van^R); experiment: Broth microdilution MIC (NCCLS); format: cell-based; details: Enterococcus faecium
Procedure: as §1, §2, §3, §4

[15] = test system: P. aeruginosa ATCC 27853; experiment: Broth microdilution MIC (NCCLS); format: cell-based; details: Pseudomonas aeruginosa, ATCC27853
Procedure: as §1, §2, §3, §4

[16] = test system: S. aureus ATCC 13709 (Smith diffuse); experiment: Murine lethal bacteremic peritonitis (septicemia) efficacy; format: in vivo, mice; details: Staphylococcus aureus, ATCC13709, sc, read-out: Efficacy in murine septicemia % survival
Procedure: 10 mice/group were injected intraperitoneally with 2.98×10^7 cfu S. aureus ATCC 13709 (Smith diffuse) and treated at 0 and 2 hrs post-challenge with serial two-fold doses of new cephalosporin antibiotic, imipenem and vancomycin subcutaneously in order to determine the ED50. Male Swiss-Webster mice weighing originally 24.2-26.1 g were obtained from Charles Rivers Labs, Hollister, Calif. Mice were housed 10 per cage and given free access to water and mouse chow.
Staphylococcus aureus ATCC 13709 (Smith diffuse) was grown overnight at 37° C. in Brain-heart Infusion broth (BHIB). The following morning, it was subcultured to fresh BHIB and incubated for 4-5 h at 37° C. The log-phase growth cells were washed once with physiological saline and adjusted to the desired concentration by correlation of absorbency at OD 600 nm with predetermined plate counts (NCCLS, 1994). The cell suspension was mixed with an equal volume of sterile 14% hog-gastric mucin (2). Inoculum was kept in an ice bath until used (<1 h).
Mice were challenged via an injection of 0.5 mL bacterial suspension intraperitoneally. The bacterial challenge was 2.98×10^7 cfu/mouse.
Imipenem (Primaxin IV; Lot 7294A), vancomycin (Vancocin; Lot 8MU60W), and new cephalosporin antibiotic were prepared by serial two-fold dilutions to concentrations of 0.078-0.005 mg/mL, 1.2-0.075 mg/mL, 0.3-0.02 mg/mL, 0.3-0.02 mg/mL and 0.3-0.02 mg/mL respectively in sterile water (1). All antibiotics were administered subcutaneously in 0.1 mL volumes at 0 and 2 hours post-challenge. Concentrations of all compounds are based on the weight of the bioactive ingredients.
The 50% effective dose (ED50) was calculated by the probit method (3) utilizing a program entitled Probit (Nycomed-Salutar).

SMILES: NCCSCc1ccncc1SC1=C(C(=O)O)N2C(=O)[C@@H](NC(=O)/C(=N\O)c3nsc(N)n3)[C@H]2SC1 [Cmpd 27, (7R)-7-[(Z)-2-(5-amino-1,2,4-thiadiazol-3-yl)-2-(hydroxyimino)acetamido]-3-[4-(2-aminoethylthiomethyl)pyrid-3-ylthio]-3-cephem-4-carboxylic acid]
- Human serum binding effect (ratio of MIC value determined with and without human serum added) [1]: 4
- MIC [2]: 0.25 µg/mL (≈ 0.44 µM)
- stability of compounds in rat serum [3]: improved stability

SMILES: NCCSCc1csc(SC2=C(C(=O)O)N3C(=O)[C@@H](NC(=O)/C(=N\O)c4cccc(N)n4)[C@H]3SC2)n1 [Cmpd 4, (7R)-7-[(Z)-2-(2-aminopyrid-6-yl)-2-(hydroxyimino)acetamido]-3-[4-(2-aminoethylthiomethyl)-1,3-thiazol-2-ylthio]-3-cephem-4-carboxylic acid]
- Human serum binding effect (ratio of MIC value determined with and without human serum added) [1]: 3
- MIC [4]: 2 µg/mL (≈ 3.52 µM)
- MIC [5]: 0.25 µg/mL (≈ 0.44 µM)
- MIC [2]: 0.13 µg/mL (≈ 0.229 µM)
- MIC [6]: 0.5 µg/mL (≈ 0.881 µM)
- MIC [7]: 2 µg/mL (≈ 3.52 µM)
- MIC [8]: 1 µg/mL (≈ 1.76 µM)
- MIC [9]: 0.13 µg/mL (≈ 0.229 µM)
- MIC [10]: 0.25 µg/mL (≈ 0.44 µM)
- MIC [11]: 0.13 µg/mL (≈ 0.229 µM)
- MIC [12]: 4 µg/mL (≈ 7.05 µM)

SMILES: NCCSc1nnc(SC2=C(C(=O)O)N3C(=O)[C@@H](NC(=O)/C(=N\O)c4nc(N)sc4Cl)[C@H]3SC2)s1 [Cmpd 1, (7R)-7-[(Z)-2-(2-amino-5-chlorothiazol-4-yl)-2-(hydroxyimino)acetamido]-3-(2-aminoethylthio-1,3,4-thiadiazol-5-ylthio)-3-cephem-4-carboxylic acid]
- Human serum binding effect (ratio of MIC value determined with and without human serum added) [1]: 64
- MIC [13]: 1 µg/mL (≈ 1.68 µM)
- MIC [14]: 2 µg/mL (≈ 3.36 µM)
- MIC [5]: 0.5 µg/mL (≈ 0.84 µM)
- MIC [2]: 0.13 µg/mL (≈ 0.218 µM)
- MIC [6]: 0.25 µg/mL (≈ 0.42 µM)
- MIC [7]: 1 µg/mL (≈ 1.68 µM)
- MIC [8]: 1 µg/mL (≈ 1.68 µM)
- MIC [9]: 0.25 µg/mL (≈ 0.42 µM)
- MIC [12]: 0.5 µg/mL (≈ 0.84 µM)

SMILES: Cc1nc(CSCCN)c(SC2=C(C(=O)O)N3C(=O)[C@@H](NC(=O)/C(=N\O)c4cccc(N)n4)[C@H]3SC2)s1 [Cmpd 2, (7R)-7-[(Z)-2-(2-aminopyrid-6-yl)-2-(hydroxyimino)acetamido]-3-[4-(2-aminoethylthiomethyl)-2-methyl-1,3-thiazol-5-ylthio]-3-cephem-4-carboxylic acid]
- Human serum binding effect (ratio of MIC value determined with and without human serum added) [1]: 4
- MIC [13]: 4 µg/mL (≈ 6.88 µM)
- MIC [14]: 4 µg/mL (≈ 6.88 µM)
- MIC [4]: 4 µg/mL (≈ 6.88 µM)
- MIC [5]: 4 µg/mL (≈ 6.88 µM)
- MIC [2]: 0.13 µg/mL (≈ 0.223 µM)
- MIC [15]: > 32 µg/mL
- MIC [6]: 1 µg/mL (≈ 1.72 µM)
- MIC [7]: 2 µg/mL (≈ 3.44 µM)
- MIC [9]: 0.25 µg/mL (≈ 0.43 µM)
- MIC [10]: 0.25 µg/mL (≈ 0.43 µM)
- MIC [11]: 0.25 µg/mL (≈ 0.43 µM)
- MIC [12]: 32 µg/mL (≈ 55 µM)

SMILES: C[C@@H](O)[C@H]1C(=O)N2C(C(=O)O)=C(SCCN=CN)C[C@H]12 [Imipenem, reference compound]
- Human serum binding effect (ratio of MIC value determined with and without human serum added) [1]: 2
- MIC [2]: 0.008 µg/mL (≈ 0.0267 µM)
- responders at 0.039 mg/kg ([16]; dose 0.039 mg/kg s.c. at 0 and 2 h post-challenge): 20%
- responders at 0.078 mg/kg ([16]; dose 0.078 mg/kg s.c. at 0 and 2 h post-challenge): 40%
- responders at 0.156 mg/kg ([16]; dose 0.156 mg/kg s.c. at 0 and 2 h post-challenge): 100%
- responders at 0.312 mg/kg ([16]; dose 0.312 mg/kg s.c. at 0 and 2 h post-challenge): 100%
- responders at 0.625 mg/kg ([16]; dose 0.625 mg/kg s.c. at 0 and 2 h post-challenge): 100%
